Publication PMC10916402, “Meropenem-ANT3310, a unique β-lactam-β-lactamase inhibitor combination with expanded antibacterial spectrum against Gram-negative pathogens including carbapenem-resistant Acinetobacter baumannii” (Antimicrobial Agents and Chemotherapy, 2024)
≈ marks a conversion by molar mass, not a printed value. Read-outs that look alike come from different tables or passages of the source. Values belong to the compound of their own block, whether it stands above or below them.

Legend:
[1] = test system: A. baumannii clinical isolates; assay: Broth microdilution MIC, A. baumannii clinical isolates; format: cell-based, Acinetobacter baumannii; conditions: for MIC50 / MIC90: Acinetobacter baumannii; for MIC50: read-out: MIC50; for MIC90: read-out: MIC90
Protocol: (§1) All isolates were randomly selected from the frozen culture collection of IHMA collected in 2018 and 2019. Matrix-assisted laser desorption ionization-time of flight mass spectrometry was used to confirm the identity of the organisms tested (Bruker Daltonics, Bremen, Germany).
(§2) MICs for all antimicrobial agents were determined at IHMA by broth microdilution in accordance with both CLSI ([17]) and EUCAST ([18]) guidelines. Microtiter panels were prepared by IHMA and stored at −70°C in cation-adjusted Mueller Hinton broth (CAMHB) (Becton Dickinson). Iron-depleted CAMHB was used to test cefiderocol. Panels containing ANT3310 were prepared fresh on the day of testing. […] MIC values corresponded to the first well with no visible growth. Quality control testing was performed on each day of testing with E. coli ATCC 25922, P. aeruginosa ATCC 27853, K. pneumoniae ATCC 700603 and BAA 1705, and A. baumannii NCTC 13304. MICs were interpreted using 2023 CLSI ([17]) and EUCAST ([18]) BPs.

[2] = test system: carbapenem-resistant Acinetobacter baumannii (CRAB) clinical isolates; assay: Broth microdilution MIC, CRAB isolates; format: cell-based; conditions: for MIC50 / MIC90: Acinetobacter baumannii; for MIC50: read-out: MIC50; for MIC90: read-out: MIC90
Protocol: as §1, §2

[3] = test system: OXA-producing Enterobacterales (OXA-CRE); assay: organism not typed; format: cell-based
Protocol: as §1, §2

[4] = test system: KPC-producing Enterobacterales (KPC-CRE); assay: organism not typed; format: cell-based
Protocol: as §1, §2

[5] = 2018 Global collection, All A. baumannii, N 500
[6] = A. baumannii, one or both of the 2018/2019 collections
[7] = 2018 Global collection, CRAB (MEM MICs >4 µg/mL), N 363
[8] = 2019 Global collection, All A. baumannii, N 405
[9] = 2019 Global collection, All A. baumannii, N 405, EUCAST BP
[10] = 2019 Global collection, CRAB (MEM MICs >4 µg/mL), N 340
[11] = 2019 Global collection, CRAB, N 340, EUCAST BP

SMILES: CN(C)[C@@H]1C(O)=C(C(N)=O)C(=O)[C@@]2(O)C(O)=C3C(=O)c4c(O)c(NC(=O)CN5CCCC5)cc(F)c4C[C@H]3C[C@@H]12 [Eravacycline, eravacycline]
Number of isolates inhibited at MIC of 0.25 µg/mL [1, 5]: 66
Number of isolates inhibited at MIC of 0.5 µg/mL [1, 5]: 83
Number of isolates inhibited at MIC of 1 µg/mL [1, 5]: 194
Number of isolates inhibited at MIC of 2 µg/mL [1, 5]: 55
Number of isolates inhibited at MIC of 4 µg/mL [1, 5]: 3
Number of isolates inhibited at MIC of ≤0.125 µg/mL [1, 5]: 99
MIC50 [1, 5]: 1 µg/mL (≈ 1.79 µM)
MIC90 [1, 5]: 2 µg/mL (≈ 3.58 µM)
MIC90 [1, 6]: 2 µg/mL (≈ 3.58 µM)
Number of isolates inhibited at MIC of 0.25 µg/mL [2, 7]: 43
Number of isolates inhibited at MIC of 0.5 µg/mL [2, 7]: 73
Number of isolates inhibited at MIC of 1 µg/mL [2, 7]: 186
Number of isolates inhibited at MIC of 2 µg/mL [2, 7]: 53
Number of isolates inhibited at MIC of 4 µg/mL [2, 7]: 3
Number of isolates inhibited at MIC of ≤0.125 µg/mL [2, 7]: 5
MIC50 [2, 7]: 1 µg/mL (≈ 1.79 µM)
MIC90 [2, 7]: 2 µg/mL (≈ 3.58 µM)
MIC50 [3]: 1 µg/mL (≈ 1.79 µM)
MIC90 [3]: 2 µg/mL (≈ 3.58 µM)
MIC50 [4]: 0.5 µg/mL (≈ 0.895 µM)
MIC90 [4]: 2 µg/mL (≈ 3.58 µM)

Number of isolates inhibited at MIC of 0.5 µg/mL [1, 8]: 1
Number of isolates inhibited at MIC of 1 µg/mL [1, 8]: 1
Number of isolates inhibited at MIC of 2 µg/mL [1, 8]: 10
Number of isolates inhibited at MIC of 4 µg/mL [1, 8]: 33
Number of isolates inhibited at MIC of 8 µg/mL [1, 8]: 96
Number of isolates inhibited at MIC of 16 µg/mL [1, 8]: 99
Number of isolates inhibited at MIC of >16 µg/mL ([1]; 2019 Global collection, All A. baumannii, N 405, footnote c): 104^c
Number of isolates inhibited at MIC of ≤0.25 µg/mL ([1]; 2019 Global collection, All A. baumannii, N 405, footnote d): 61^d
MIC50 [1, 8]: 16 µg/mL (≈ 44.3 µM)
MIC90 [1, 8]: > 16 µg/mL
MIC90 [1, 6]: ≥ 32 µg/mL
Number of isolates inhibited at MIC of 2 µg/mL [2, 10]: 9
Number of isolates inhibited at MIC of 4 µg/mL [2, 10]: 29
Number of isolates inhibited at MIC of 8 µg/mL [2, 10]: 92
Number of isolates inhibited at MIC of 16 µg/mL [2, 10]: 97
Number of isolates inhibited at MIC of >16 µg/mL ([2]; 2019 Global collection, CRAB, N 340, footnote c): 104^c
Number of isolates inhibited at MIC of ≤0.25 µg/mL ([2]; 2019 Global collection, CRAB, N 340, footnote d): 9^d
MIC50 [2, 10]: 16 µg/mL (≈ 44.3 µM)
MIC90 [2, 10]: > 16 µg/mL
SMILES: C[C@H]1COc2c(N3CCN(C)CC3)c(F)cc3c(=O)c(C(=O)O)cn1c23 [Levofloxacin, levofloxacin]
CLSI % Res ([1]; 2019 Global collection, All A. baumannii, N 405, CLSI BP, for MEM-ANT3310 % at ≥16 µg/mL): 73.8%
CLSI % Sus ([1]; 2019 Global collection, All A. baumannii, N 405, CLSI BP, for MEM-ANT3310 % inhibited at ≤8 µg/mL): 18%
EUCAST % Res [1, 9]: 84.4%
EUCAST % Sus [1, 9]: 15.3%
CLSI % Res ([2]; 2019 Global collection, CRAB, N 340, CLSI BP, for MEM-ANT3310 % at ≥16 µg/mL): 86.2%
CLSI % Sus ([2]; 2019 Global collection, CRAB, N 340, CLSI BP, for MEM-ANT3310 % inhibited at ≤8 µg/mL): 5.3%
EUCAST % Res [2, 11]: 97.3%
EUCAST % Sus [2, 11]: 2.7%
